Test results taken from PubChem BioAssay (NCI).
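Compound exposure: 48 hours, 5 concentrations, 96-well plates. TGI is the concentration that stops growth completely.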

Key:
Assay in all cases: inhibition of tumour cell growth, NCI panel, 48 h
SF-539 CNS = test system: SF-539 CNS
K-562 leukemia = test system: K-562 leukemia
BT-549 breast = test system: BT-549 breast
SNB-75 CNS = test system: SNB-75 CNS
CAKI-1 renal = test system: CAKI-1 renal
OVCAR-5 ovarian = test system: OVCAR-5 ovarian
TK-10 renal = test system: TK-10 renal
NCI-H226 lung = test system: NCI-H226 lung
A549 NSCLC = test system: A549 NSCLC
OVCAR-3 ovarian = test system: OVCAR-3 ovarian
HCT-15 colon = test system: HCT-15 colon
RPMI-8226 leukemia = test system: RPMI-8226 leukemia
SW-620 colon = test system: SW-620 colon
NCI/ADR-RES ovarian = test system: NCI/ADR-RES ovarian
OVCAR-4 ovarian = test system: OVCAR-4 ovarian
UACC-62 melanoma = test system: UACC-62 melanoma
SK-OV-3 ovarian = test system: SK-OV-3 ovarian
CCRF-CEM leukemia = test system: CCRF-CEM leukemia
U251 CNS = test system: U251 CNS
OVCAR-8 ovarian = test system: OVCAR-8 ovarian
NCI-H23 lung = test system: NCI-H23 lung
SF-295 CNS = test system: SF-295 CNS
HOP-92 NSCLC = test system: HOP-92 NSCLC
HL-60(TB) leukemia = test system: HL-60(TB) leukemia
MDA-MB-231 breast = test system: MDA-MB-231 breast
SNB-19 CNS = test system: SNB-19 CNS
HCT-116 colon = test system: HCT-116 colon
HCC-2998 colon = test system: HCC-2998 colon
DU-145 prostate = test system: DU-145 prostate
PC-3 prostate = test system: PC-3 prostate
HOP-62 NSCLC = test system: HOP-62 NSCLC
RXF 393 renal = test system: RXF 393 renal
SK-MEL-5 melanoma = test system: SK-MEL-5 melanoma
T-47D breast = test system: T-47D breast
MCF7 breast = test system: MCF7 breast
UACC-257 melanoma = test system: UACC-257 melanoma
SK-MEL-28 melanoma = test system: SK-MEL-28 melanoma
EKVX NSCLC = test system: EKVX NSCLC
SK-MEL-2 melanoma = test system: SK-MEL-2 melanoma
UO-31 renal = test system: UO-31 renal
786-0 renal = test system: 786-0 renal
LOX IMVI melanoma = test system: LOX IMVI melanoma
A498 renal = test system: A498 renal
MOLT-4 leukemia = test system: MOLT-4 leukemia
COLO 205 colon = test system: COLO 205 colon
ACHN renal = test system: ACHN renal
KM12 colon = test system: KM12 colon
NCI-H460 lung = test system: NCI-H460 lung
SN12C renal = test system: SN12C renal
MDA-N = test system: MDA-N
HT29 colon = test system: HT29 colon
MDA-MB-435 = test system: MDA-MB-435
MALME-3M melanoma = test system: MALME-3M melanoma
HS 578T breast = test system: HS 578T breast
SF-268 CNS = test system: SF-268 CNS
M14 melanoma = test system: M14 melanoma
IGROV1 ovarian = test system: IGROV1 ovarian
NCI-H522 lung = test system: NCI-H522 lung

CCCC/C=C/C/C=C/CCCCCCCCC(=O)OCC1CCCN2CCCCC12 (stereo unspecified)
TGI (SF-539 CNS): > 100 µM | TGI (K-562 leukemia): > 100 µM | TGI (BT-549 breast): > 100 µM | TGI (SNB-75 CNS): > 100 µM | TGI (CAKI-1 renal): > 100 µM | TGI (OVCAR-5 ovarian): > 100 µM | TGI (TK-10 renal): > 100 µM | TGI (NCI-H226 lung): > 100 µM | TGI (A549 NSCLC): > 100 µM | TGI (OVCAR-3 ovarian): > 100 µM | TGI (HCT-15 colon): > 100 µM | TGI (RPMI-8226 leukemia): > 100 µM | TGI (SW-620 colon): > 100 µM | TGI (NCI/ADR-RES ovarian): > 100 µM | TGI (OVCAR-4 ovarian): > 100 µM | TGI (UACC-62 melanoma): > 100 µM | TGI (SK-OV-3 ovarian): > 100 µM | TGI (CCRF-CEM leukemia): > 100 µM | TGI (U251 CNS): > 100 µM | TGI (OVCAR-8 ovarian): > 100 µM | TGI (NCI-H23 lung): > 100 µM | TGI (SF-295 CNS): > 100 µM | TGI (HOP-92 NSCLC): > 100 µM | TGI (HL-60(TB) leukemia): > 100 µM | TGI (MDA-MB-231 breast): > 100 µM | TGI (SNB-19 CNS): > 100 µM | TGI (HCT-116 colon): > 100 µM | TGI (HCC-2998 colon): > 100 µM | TGI (DU-145 prostate): > 100 µM | TGI (PC-3 prostate): > 100 µM | TGI (HOP-62 NSCLC): > 100 µM | TGI (RXF 393 renal): > 100 µM | TGI (SK-MEL-5 melanoma): > 100 µM | TGI (T-47D breast): 88.6 µM | TGI (MCF7 breast): > 100 µM | TGI (UACC-257 melanoma): > 100 µM | TGI (SK-MEL-28 melanoma): > 100 µM | TGI (EKVX NSCLC): > 100 µM | TGI (SK-MEL-2 melanoma): > 100 µM | TGI (UO-31 renal): > 100 µM | TGI (786-0 renal): > 100 µM | TGI (LOX IMVI melanoma): > 100 µM | TGI (A498 renal): > 100 µM | TGI (MOLT-4 leukemia): > 100 µM | TGI (COLO 205 colon): > 100 µM | TGI (ACHN renal): > 100 µM | TGI (KM12 colon): > 100 µM | TGI (NCI-H460 lung): > 100 µM | TGI (SN12C renal): > 100 µM | TGI (MDA-N): > 100 µM | TGI (HT29 colon): > 100 µM | TGI (MDA-MB-435): > 100 µM | TGI (MALME-3M melanoma): > 100 µM | TGI (HS 578T breast): > 100 µM | TGI (SF-268 CNS): > 100 µM | TGI (M14 melanoma): > 100 µM

CO/C(N)=C(\C#N)N=Cc1ccco1
TGI (K-562 leukemia): > 100 µM | TGI (BT-549 breast): > 100 µM | TGI (SNB-75 CNS): > 100 µM | TGI (CAKI-1 renal): > 100 µM | TGI (OVCAR-5 ovarian): > 100 µM | TGI (TK-10 renal): > 100 µM | TGI (NCI-H226 lung): > 100 µM | TGI (A549 NSCLC): > 100 µM | TGI (OVCAR-3 ovarian): > 100 µM | TGI (HCT-15 colon): > 100 µM | TGI (RPMI-8226 leukemia): > 100 µM | TGI (SW-620 colon): > 100 µM | TGI (NCI/ADR-RES ovarian): > 100 µM | TGI (OVCAR-4 ovarian): > 100 µM | TGI (UACC-62 melanoma): > 100 µM | TGI (SK-OV-3 ovarian): > 100 µM | TGI (CCRF-CEM leukemia): > 100 µM | TGI (U251 CNS): > 100 µM | TGI (OVCAR-8 ovarian): > 100 µM | TGI (NCI-H23 lung): > 100 µM | TGI (SF-295 CNS): > 100 µM | TGI (HOP-92 NSCLC): > 100 µM | TGI (HL-60(TB) leukemia): > 100 µM | TGI (MDA-MB-231 breast): > 100 µM | TGI (HCT-116 colon): > 100 µM | TGI (HCC-2998 colon): > 100 µM | TGI (DU-145 prostate): > 100 µM | TGI (PC-3 prostate): > 100 µM | TGI (HOP-62 NSCLC): > 100 µM | TGI (RXF 393 renal): > 100 µM | TGI (SK-MEL-5 melanoma): > 100 µM | TGI (IGROV1 ovarian): > 100 µM | TGI (T-47D breast): > 100 µM | TGI (MCF7 breast): > 100 µM | TGI (UACC-257 melanoma): > 100 µM | TGI (SK-MEL-28 melanoma): > 100 µM | TGI (EKVX NSCLC): > 100 µM | TGI (SK-MEL-2 melanoma): > 100 µM | TGI (UO-31 renal): > 100 µM | TGI (786-0 renal): > 100 µM | TGI (LOX IMVI melanoma): > 100 µM | TGI (A498 renal): > 100 µM | TGI (MOLT-4 leukemia): > 100 µM | TGI (COLO 205 colon): > 100 µM | TGI (ACHN renal): > 100 µM | TGI (KM12 colon): > 100 µM | TGI (SN12C renal): > 100 µM | TGI (MDA-N): > 100 µM | TGI (HT29 colon): > 100 µM | TGI (MDA-MB-435): > 100 µM | TGI (MALME-3M melanoma): > 100 µM | TGI (HS 578T breast): > 100 µM | TGI (SF-268 CNS): > 100 µM | TGI (NCI-H522 lung): > 100 µM | TGI (M14 melanoma): > 100 µM
